Source: patent US9018388B2, “Pesticidal compositions and processes related thereto” (Dow AgroSciences LLC, priority 2012, dated 2015)

Key:
[1] = system: Corn Earworm (CEW) (Helicoverpa zea); assay: Bioassay on corn earworm (CEW), 128-well diet tray assay; assay type: in vivo; details: Helicoverpa zea; Corn earworm, 50 μg/cm^2; read-out: % Mortality CEW 50 μg/cm^2
How it was run: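 Second-instar Helicoverpa zea larvae (one to five per well) placed on artificial diet treated with 50 μg/cm^2 compound in 90:10 acetone-water, dried, eight wells per compound. Held at 25 °C, 14:10 light-dark, five to seven days; percent mortality averaged over wells.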

[2] = system: Beet Armyworm (BAW) (Spodoptera exigua); assay: Bioassay on beet armyworm (BAW), 128-well diet tray assay; assay type: in vivo; details: Spodoptera exigua; Beet armyworm, 50 μg/cm^2; read-out: % Mortality BAW 50 μg/cm^2
How it was run: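 Second-instar Spodoptera exigua larvae, one to five per well, on artificial diet treated with 50 μg/cm^2 compound in 90:10 acetone-water and dried, eight wells per compound. Held at 25 °C, 14:10 light-dark for five to seven days; percent mortality averaged over wells.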

Row | SMILES | pest or weed control at 50 µg/cm2, 50 µg/cm2 [1] [%] | pest or weed control at 50 µg/cm2, 50 µg/cm2 [2] [%]
1 | COc1cc(C)c(/N=C(/N/N=C/c2ccc(-c3ncn(-c4ccc(OC(F)(F)C(F)(F)F)cc4)n3)cc2)SCOC(=O)C(C)C)c(C)c1 [Compound 37C] | 50 to 100 | 50 to 100
2 | FC(F)Oc1ccccc1N1CCS/C1=N\N=C\c1ccc(-c2ncn(-c3ccc(OC(F)(F)F)cc3)n2)cc1 [Compound 152C] | 50 to 100 | 50 to 100
3 | Cc1cccc(C)c1N1C(=O)CS/C1=N\N=C\c1ccc(-c2ncn(-c3ccc(OC(F)(F)F)cc3)n2)cc1 [Compound 71C] | 50 to 100 | 50 to 100
4 | Cc1cccc(C)c1/N=C(/N/N=C/c1ccc(-c2ncn(-c3ccc(OC(F)(F)F)cc3)n2)cc1)SCc1ccccc1 [Compound 10C] | 50 to 100 | 50 to 100
5 | COc1cc(C)c(/N=C(/N/N=C/c2ccc(-c3ncn(-c4ccc(OC(F)(F)F)cc4)n3)cc2)SCC(=O)NCCCNC(=O)OC(C)(C)C)c(C)c1 [Compound 60C] | 50 to 100 | 50 to 100
6 | O=C1CS/C(=N\N=C\c2ccc(-c3ncn(-c4ccc(OC(F)(F)F)cc4)n3)cc2)N1c1c(Cl)cccc1Cl [Compound 70C] | 50 to 100 | 50 to 100
7 | CC1S/C(=N\N=C\c2ccc(-c3ncn(-c4ccc(OC(F)(F)F)cc4)n3)cc2)N(c2ccccc2C2CC2)C1=O (stereo not drawn) [Compound 127C] | 50 to 100 | 50 to 100
8 | CCc1cccnc1N1C(=O)CS/C1=N\N=C\c1ccc(-c2ncn(-c3ccc(OC(F)(F)F)cc3)n2)cc1 [Compound 123C] | 50 to 100 | 50 to 100
9 | Cc1cccnc1N1CCCS/C1=N\N=C\c1ccc(-c2ncn(-c3ccc(OC(F)(F)F)cc3)n2)cc1 [Compound 198C] | 50 to 100 | 50 to 100
10 | CCc1cccc(C)c1N1C(=O)CCS/C1=N\N=C\c1ccc(-c2ncn(-c3ccc(OC(F)(F)F)cc3)n2)cc1 [Compound 225C] | 50 to 100 | 50 to 100
11 | CCC1CS/C(=N\N=C\c2ccc(-c3ncn(-c4ccc(OC(F)(F)F)cc4)n3)cc2)N1c1c(C)cccc1Cl (stereo not drawn) [Compound 167C] | 50 to 100 | 50 to 100
12 | CCc1cccc(C)c1N1CS/C1=N\N=C\c1ccc(-c2ncn(-c3ccc(OC(F)(F)F)cc3)n2)cc1 [Compound 243C] | 50 to 100 | 50 to 100
13 | CCCS/C(=N\c1c(Cl)cccc1Cl)N/N=C/c1ccc(-c2ncn(-c3ccc(OC(F)(F)F)cc3)n2)cc1 [Compound 3C] | 50 to 100 | 50 to 100
14 | CCc1ccccc1N1C(=O)CS/C1=N\N=C\c1ccc(-c2ncn(-c3ccc(OC(F)(F)F)cc3)n2)cc1 [Compound 94C] | 50 to 100 | 50 to 100
15 | FC(F)(F)Oc1ccc(-n2cnc(-c3ccc(/C=N/N=C4\SCCN4c4ccccc4-c4ccccc4)cc3)n2)cc1 [Compound 144C] | 50 to 100 | 50 to 100
16 | CC1CSC(=NN=Cc2ccc(-c3ncn(-c4ccc(OC(F)(F)F)cc4)n3)cc2)N(c2ccccc2C(C)C)C1 (stereo in doubt) [Compound 178C, (Z)-3-(2-isopropylphenyl)-5-methyl-2-((E)-(4-(1-(4-(trifluoromethoxy)phenyl)-1H-1,2,4-triazol-3-yl)benzylidene)hydrazono)-1,3-thiazinane] | 50 to 100 | 50 to 100
17 | CCC(C)c1ccccc1N1CCS/C1=N\N=C\c1ccc(-c2ncn(-c3ccc(OC(F)(F)F)cc3)n2)cc1 (stereo not drawn) [Compound 135C] | 50 to 100 | 50 to 100
18 | CN(C)c1cccc(N2C(=O)CS/C2=N\N=C\c2ccc(-c3ncn(-c4ccc(OC(F)(F)F)cc4)n3)cc2)c1 [Compound 97C] | 50 to 100 | 50 to 100
19 | O=C1CCS/C(=N\N=C\c2ccc(-c3ncn(-c4ccc(OC(F)(F)F)cc4)n3)cc2)N1c1c(F)cccc1F [Compound 226C] | 50 to 100 | 50 to 100
20 | Cc1cccc(C)c1/N=C(/N/N=C/c1ccc(-c2ncn(-c3ccc(OC(F)(F)F)cc3)n2)cc1)SCc1c(-c2ccccc2)noc1C [Compound 20C] | 50 to 100 | 50 to 100
21 | Cc1cccc(C)c1/N=C(/N/N=C/c1ccc(-c2ncn(-c3ccc(OC(F)(F)F)cc3)n2)cc1)SCC(=O)NCCCN(C)C(=O)OC(C)(C)C [Compound 61C] | 50 to 100 | 50 to 100

Row | SMILES | pest or weed control at 50 µg/cm2, 50 µg/cm2 [1] [%] | pest or weed control at 50 µg/cm2, 50 µg/cm2 [2] [%]
22 | Cc1cccc(C)c1/N=C(/N/N=C/c1ccc(-c2ncn(-c3ccc(OC(F)(F)F)cc3)n2)cc1)SCC(=O)NCC(C)C [Compound 55C] | 50 to 100 | 50 to 100
23 | CC(C)c1ccccc1N1CS/C1=N\N=C\c1ccc(-c2ncn(-c3ccc4c(c3)OC(F)(F)O4)n2)cc1 [Compound 249C] | 50 to 100 | 50 to 100
24 | CCS/C(=N\c1c(Cl)cccc1Cl)N/N=C/c1ccc(-c2ncn(-c3ccc(OC(F)(F)F)cc3)n2)cc1 [Compound 2C] | 50 to 100 | 50 to 100
25 | CC1CS/C(=N\N=C\c2ccc(-c3ncn(-c4ccc(OC(F)(F)F)cc4)n3)cc2)N1c1ccccc1OC(F)(F)F (stereo not drawn) [Compound 168C] | 50 to 100 | 50 to 100
26 | CC1CS/C(=N\N=C\c2ccc(-c3ncn(-c4ccc(OC(F)(F)F)cc4)n3)cc2)N1c1ccccc1OC(F)F (stereo not drawn) [Compound 164C] | 50 to 100 | 50 to 100
27 | CCC1CS/C(=N\N=C\c2ccc(-c3ncn(-c4ccc(OC(F)(F)F)cc4)n3)cc2)N1c1ccccc1C (stereo not drawn) [Compound 166C] | 50 to 100 | 50 to 100
28 | Cc1cccc(C)c1/N=C(/N/N=C/c1ccc(-c2ncn(-c3ccc(OC(F)(F)F)cc3)n2)cc1)SCC(=O)NC[C@@H]1CCCN(C(=O)OC(C)(C)C)C1 [Compound 56C, (S)-tert-butyl 3-((2-((Z)-(2,6-dimethylphenylimino)-((E)-2-(4-(1-(4-(trifluoromethoxy)phenyl)-1H-1,2,4-triazol-3-yl)benzylidene)hydrazinyl)-methylthio)acetamido)methyl)piperidine-1-carboxylate] | 50 to 100 | 50 to 100
29 | Cc1cccc(C)c1/N=C(/N/N=C/c1ccc(-c2ncn(-c3ccc(OC(F)(F)F)cc3)n2)cc1)SCc1ccc(C(F)(F)F)o1 [Compound 16C] | 50 to 100 | 50 to 100
30 | COc1cc(C)c(N2CS/C2=N\N=C\c2ccc(-c3ncn(-c4ccc(OC(F)(F)F)cc4)n3)cc2)c(C)c1 [Compound 242C] | 50 to 100 | 50 to 100
31 | CC(C)c1ccccc1N1CS/C1=N\N=C\c1ccc(-c2ncn(-c3ccc(OC(F)(F)C(F)(F)F)cc3)n2)cc1 [Compound 247C] | 50 to 100 | 50 to 100
32 | COc1ccc(/N=C(/N/N=C/c2ccc(-c3ncn(-c4ccc(OC(F)(F)C(F)(F)F)cc4)n3)cc2)SCC(=O)O)c(C)c1 [Compound 50C] | 50 to 100 | 50 to 100
33 | C/C(=N\N=C1/SCN1c1ccccc1C(C)C)c1ccc(-c2ncn(-c3ccc(OC(F)(F)F)cc3)n2)cc1 [Compound 248C] | 50 to 100 | 50 to 100
34 | CCC(C)c1ccccc1N1C(=O)CS/C1=N\N=C\c1ccc(-c2ncn(-c3ccc(OC(F)(F)F)cc3)n2)cc1 (stereo not drawn) [Compound 108C] | 50 to 100 | 50 to 100
35 | Cc1cccc(Cl)c1N1C(=O)CS/C1=N\N=C\c1ccc(-c2ncn(-c3ccc(OC(F)(F)F)cc3)n2)cc1 [Compound 93C] | 50 to 100 | 50 to 100
36 | COc1ccc(N2/C(=N/N=C/c3ccc(-c4ncn(-c5ccc(OC(F)(F)F)cc5)n4)cc3)SCC2C)c(C)c1 (stereo not drawn) [Compound 162C] | 50 to 100 | 50 to 100
37 | CCN(CC)c1ccc(-c2cs/c(=N\N=C\c3ccc(-c4ncn(-c5ccc(OC(F)(F)F)cc5)n4)cc3)n2-c2c(C)cccc2C)cc1 [Compound 74C] | 50 to 100 | 50 to 100
38 | COCOCC(C)C(=O)OCS/C(=N\c1c(C)cc(OC)cc1C)N/N=C/c1ccc(-c2ncn(-c3ccc(OC(F)(F)F)cc3)n2)cc1 (stereo not drawn) [Compound 42C] | 50 to 100 | 50 to 100
39 | Cc1cccnc1N1C(=O)CS/C1=N\N=C\c1ccc(-c2ncn(-c3ccc(OC(F)(F)F)cc3)n2)cc1 [Compound 117C] | 50 to 100 | 50 to 100
40 | Cc1cccc(C)c1/N=C1\SCC(=O)N1/N=C/c1ccc(-c2ncn(-c3ccc(OC(F)(F)F)cc3)n2)cc1 [Compound 81C] | 50 to 100 | 50 to 100
41 | CC(C)c1ccc(F)cc1N1CS/C1=N\N=C\c1ccc(-c2ncn(-c3ccc(C(F)(C(F)(F)F)C(F)(F)F)cc3)n2)cc1 [Compound 257C] | 50 to 100 | 50 to 100
42 | O=C1CS/C(=N\N=C\c2ccc(-c3ncn(-c4ccc(OC(F)(F)F)cc4)n3)cc2)N1c1ccccc1OC(F)(F)F [Compound 124C] | 50 to 100 | 50 to 100
